Experiment [1] deals with dry eye model. The experiment is described as follows: Tear film breakup time (BUT) test, dry eye model by erlotinib instillation (Example 1). The format is in vivo. The note with it: 0.003% (w/v) apocynin in PBS, 3 μL twice daily, two weeks after start of instillation; erlotinib-instilled C57BL6 mice; FIG. 1. From the text:
After acclimating male C57BL6 mice (7 weeks old) to the experimental environment, those with almost uniform body weight values and no eye abnormalities were divided into the following 3 groups (n=5). • 7 weeks old/normal (non-dry eye group) • 7 weeks old/dry eye model+control (solvent eye drop) group • 7 weeks old/dry eye model+apocynin eye drop group The dry eye model was created by daily instillation of an EGF receptor inhibitor (erlotinib) based on the method of Yang et al. In this model, administration of erlotinib causes dry eye symptoms such as shortened BUT, decreased tear volume, and corneal damage after 1 week of administration (Non-patent Document 3). After 20 μM of erlotinib was instilled for 2 weeks, the control group received PBS alone, and the test group received 3 μL of a suspension of 0.003% (w/v) apocynin in PBS twice daily. Two weeks after the start of instillation, 1 μL of 0.1% sodium fluorescein solution was instilled into each of both eyes under isoflurane anesthesia, and a BUT test was performed using a slit lamp (Kowa Co., Ltd., SL-17) (FIG. 1). […] Under anesthesia, the tip of a Schirmer test paper cut to 1 mm width was inserted into the conjunctival sac of the lower eyelid of the mouse, the test paper was removed after 5 minutes, the length of the wetted part was read in units of 0.5 mm, and the value was used as the tear volume (FIG. 2).

For experiment [2], the system named is dry eye model. The experiment is described as follows: Fluorescein staining score, dry eye model by 0.2% benzalkonium chloride instillation (Example 2). It counts as in vivo, mice. The settings on record: 0.003% (w/v) apocynin in PBS, 3 μL 4 times daily, two days after start; 0.2% benzalkonium chloride model; FIG. 4. From the text: After acclimating male C57BL6 mice ([…]) to the experimental environment, those with almost uniform weight values and no eye abnormalities were divided into the following 3 groups (n=3). • 7 weeks old/normal (non-dry eye group) • 7 weeks old/dry eye model+control (solvent eye drop) group • 7 weeks old/dry eye model+apocynin eye drop group The dry eye model was created by instilling a 0.2% benzalkonium chloride solution based on the method of Lin et al. (Non-patent Document 4). In this model, instillation of the 0.2% benzalkonium chloride solution causes dry eye symptoms such as shortened BUT, decreased tear volume, and corneal epithelial damage after 1 day of administration (Non-patent Document 4). After the benzalkonium chloride solution was instilled twice daily for 2 days, PBS alone was administered to the control group, and for the test group, a solution of apocynin 0.003% (w/v) suspended in PBS was administered to both eyes at 3 μL each, 4 times daily. Two days after the start of apocynin instillation, 1 μL of 0.1% fluorescein sodium solution was instilled into each of both eyes under isoflurane anesthesia, and stained images were taken under a blue filter using a slit lamp (Kowa Co., Ltd., SL-17). The fluorescein staining scores were analyzed (FIG. 4).

Take `COc1cc(C(C)=O)ccc1O` [apocynin, 4-hydroxy-3-methoxyacetophenone]: in the experiment on dry eye model [1], the “tear film breakup time (BUT)” value is “improved the shortening of BUT”. Also, in the experiment with dry eye model [2], the “corneal epithelial damage (fluorescein staining score)” value is “significantly improved”.

The values are drawn from US20230338307A1, “PROPHYLACTIC AGENT, AMELIORATING AGENT, AND THERAPEUTIC AGENT FOR DRY EYE” (TSUBOTA LABORATORY, INC., priority 2020, published 2023).
